Patent publication US20230365592A1 (Agios Pharmaceuticals, Inc., priority 2022, published 2023)

target: T1, human PAH with the R408W mutation (Homo sapiens, UniProt P00439, R408W); assay: Cell Based Phenylalanine Flux Assay; conditions: A375 cells expressing human R408W PAH; 24 hrs compound incubation; 13C-Tyrosine by LC-MS; average where tested multiple times; read-out: AC50;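 further: after compound treatment, cells received sepiapterin plus isotope-labelled Phenylalanine for 4 hours, then labelled Tyrosine in the medium was quantified, 10-point 2-fold dilution series run in duplicate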
T1 construct: expressed in transfected cells
T1 sequence (P00439 1-452 R408W): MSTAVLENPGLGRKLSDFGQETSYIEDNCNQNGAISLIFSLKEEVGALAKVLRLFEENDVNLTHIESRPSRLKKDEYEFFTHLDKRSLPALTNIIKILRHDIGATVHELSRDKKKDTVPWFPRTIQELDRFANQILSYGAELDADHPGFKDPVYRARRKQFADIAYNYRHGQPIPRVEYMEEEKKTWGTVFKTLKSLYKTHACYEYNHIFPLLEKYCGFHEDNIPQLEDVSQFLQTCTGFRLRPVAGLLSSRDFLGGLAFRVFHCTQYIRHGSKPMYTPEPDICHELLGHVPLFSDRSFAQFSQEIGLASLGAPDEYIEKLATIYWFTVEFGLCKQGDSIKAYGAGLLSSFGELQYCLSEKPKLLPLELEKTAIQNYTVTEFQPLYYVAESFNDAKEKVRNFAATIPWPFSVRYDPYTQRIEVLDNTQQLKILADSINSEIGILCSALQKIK

SMILES | AC50 [nM]
Cn1nccc1-c1nnc(C(=O)N2CCc3[nH]cnc3[C@@H]2c2cc3c(F)cccn3n2)o1 [Example 1019, (R)-(4-(4-fluoropyrazolo[1,5-a]pyridin-2-yl)-6,7-dihydro-1H-imidazo[4,5-c]pyridin-5(4H)-yl)(5-(1-methyl-1H-pyrazol-5-yl)-1,3,4-oxadiazol-2-yl)methanone] | > 5000
Cc1cccc2cc([C@@H]3c4nc[nH]c4CCN3C(=O)c3nnc(C(C)(C)C)o3)nn12 [Example 1020, (S)-(5-(tert-butyl)-1,3,4-oxadiazol-2-yl)(4-(7-methylpyrazolo[1,5-a]pyridin-2-yl)-6,7-dihydro-1H-imidazo[4,5-c]pyridin-5(4H)-yl)methanone] | < 500
Cc1cccc2cc([C@H]3c4nc[nH]c4CCN3C(=O)c3nnc(C(C)(C)C)o3)nn12 [Example 1021, (R)-(5-(tert-butyl)-1,3,4-oxadiazol-2-yl)(4-(7-methylpyrazolo[1,5-a]pyridin-2-yl)-6,7-dihydro-1H-imidazo[4,5-c]pyridin-5(4H)-yl)methanone] | 1000 to 5000
CC(C)(F)c1nnc(C(=O)N2CCc3[nH]cnc3[C@H]2c2cc3c(F)cccn3n2)o1 [Example 1024, (S)-(5-(2-fluoropropan-2-yl)-1,3,4-oxadiazol-2-yl)(4-(4-fluoropyrazolo[1,5-a]pyridin-2-yl)-6,7-dihydro-1H-imidazo[4,5-c]pyridin-5(4H)-yl)methanone] | < 500
CC(C)(F)c1nnc(C(=O)N2CCc3[nH]cnc3[C@@H]2c2cc3c(F)cccn3n2)o1 [Example 1025, (R)-(5-(2-fluoropropan-2-yl)-1,3,4-oxadiazol-2-yl)(4-(4-fluoropyrazolo[1,5-a]pyridin-2-yl)-6,7-dihydro-1H-imidazo[4,5-c]pyridin-5(4H)-yl)methanone] | 1000 to 5000
CC(C)(C)c1nnc(C(=O)N2CCc3[nH]cnc3[C@@H]2c2cc3c(F)cccn3n2)o1 [Example 1026, (R)-(5-(tert-butyl)-1,3,4-oxadiazol-2-yl)(4-(4-fluoropyrazolo[1,5-a]pyridin-2-yl)-6,7-dihydro-1H-imidazo[4,5-c]pyridin-5(4H)-yl)methanone] | 1000 to 5000
CC(C)(C)c1nnc(C(=O)N2CCc3[nH]cnc3[C@H]2c2cc3c(F)cccn3n2)o1 [Example 1027, (S)-(5-(tert-butyl)-1,3,4-oxadiazol-2-yl)(4-(4-fluoropyrazolo[1,5-a]pyridin-2-yl)-6,7-dihydro-1H-imidazo[4,5-c]pyridin-5(4H)-yl)methanone] | < 500
O=C(c1nnc(-c2ccn(C(F)F)n2)o1)N1CCc2[nH]cnc2[C@H]1c1cc2cccc(C(F)(F)F)n2n1 [Example 1036, (S)-(5-(1-(difluoromethyl)-1H-pyrazol-3-yl)-1,3,4-oxadiazol-2-yl)(4-(7-(trifluoromethyl)pyrazolo[1,5-a]pyridin-2-yl)-6,7-dihydro-1H-imidazo[4,5-c]pyridin-5(4H)-yl)methanone] | 500 to 1000
Cc1cccn2nc([C@@H]3c4nc[nH]c4CCN3C(=O)c3nnc(-c4cnn(C5CCC5)c4)o3)cc12 [Example 1038, (S)-(5-(1-cyclobutyl-1H-pyrazol-4-yl)-1,3,4-oxadiazol-2-yl)(4-(4-methylpyrazolo[1,5-a]pyridin-2-yl)-6,7-dihydro-1H-imidazo[4,5-c]pyridin-5(4H)-yl)methanone] | < 500
Cc1cccn2nc([C@H]3c4nc[nH]c4CCN3C(=O)c3nnc(-c4cnn(C5CCC5)c4)o3)cc12 [Example 1039, (R)-(5-(1-cyclobutyl-1H-pyrazol-4-yl)-1,3,4-oxadiazol-2-yl)(4-(4-methylpyrazolo[1,5-a]pyridin-2-yl)-6,7-dihydro-1H-imidazo[4,5-c]pyridin-5(4H)-yl)methanone] | > 5000
O=C(c1nnc(-c2cnn(C(F)F)c2)o1)N1CCc2[nH]cnc2[C@H]1c1cc2cccc(C(F)(F)F)n2n1 [Example 1040, (S)-(5-(1-(difluoromethyl)-1H-pyrazol-4-yl)-1,3,4-oxadiazol-2-yl)(4-(7-(trifluoromethyl)pyrazolo[1,5-a]pyridin-2-yl)-6,7-dihydro-1H-imidazo[4,5-c]pyridin-5(4H)-yl)methanone] | 500 to 1000

Continued, values first:

AC50 [nM] | SMILES
< 500 | O=C(c1nnc(-c2ccccn2)o1)N1CCc2[nH]cnc2[C@H]1c1cc2cccc(C(F)(F)F)n2n1 [Example 1028, (S)-(5-(pyridin-2-yl)-1,3,4-oxadiazol-2-yl)(4-(7-(trifluoromethyl)pyrazolo[1,5-a]pyridin-2-yl)-6,7-dihydro-1H-imidazo[4,5-c]pyridin-5(4H)-yl)methanone]
1000 to 5000 | O=C(c1nnc(-c2ccccn2)o1)N1CCc2[nH]cnc2[C@@H]1c1cc2cccc(C(F)(F)F)n2n1 [Example 1029, (R)-(5-(pyridin-2-yl)-1,3,4-oxadiazol-2-yl)(4-(7-(trifluoromethyl)pyrazolo[1,5-a]pyridin-2-yl)-6,7-dihydro-1H-imidazo[4,5-c]pyridin-5(4H)-yl)methanone]
< 500 | Cn1ccc(-c2nnc(C(=O)N3CCc4[nH]cnc4[C@H]3c3cc4cccc(C(F)(F)F)n4n3)o2)n1 [Example 1030, (S)-(5-(1-methyl-1H-pyrazol-3-yl)-1,3,4-oxadiazol-2-yl)(4-(7-(trifluoromethyl)pyrazolo[1,5-a]pyridin-2-yl)-6,7-dihydro-1H-imidazo[4,5-c]pyridin-5(4H)-yl)methanone]
500 to 1000 | Cn1cnc(-c2nnc(C(=O)N3CCc4[nH]cnc4[C@H]3c3cc4cccc(C(F)(F)F)n4n3)o2)c1 [Example 1032, (S)-(5-(1-methyl-1H-imidazol-4-yl)-1,3,4-oxadiazol-2-yl)(4-(7-(trifluoromethyl)pyrazolo[1,5-a]pyridin-2-yl)-6,7-dihydro-1H-imidazo(4,5-c]pyridin-5(4H)-yl)methanone]
1000 to 5000 | Cn1cnc(-c2nnc(C(=O)N3CCc4[nH]cnc4[C@@H]3c3cc4cccc(C(F)(F)F)n4n3)o2)c1 [Example 1033, (R)-(5-(1-methyl-1H-imidazol-4-yl)-1,3,4-oxadiazol-2-yl)(4-(7-(trifluoromethyl)pyrazolo[1,5-a]pyridin-2-yl)-6,7-dihydro-1H-imidazo[4,5-c]pyridin-5(4H)-yl)methanone]
500 to 1000 | O=C(c1nnc(-c2ncccc2F)o1)N1CCc2[nH]cnc2[C@H]1c1cc2cccc(C(F)(F)F)n2n1 [Example 1034, (S)-(5-(3-fluoropyridin-2-yl)-1,3,4-oxadiazol-2-yl)(4-(7-(trifluoromethyl)pyrazolo[1,5-a]pyridin-2-yl)-6,7-dihydro-1H-imidazo[4,5-c]pyridin-5(4H)-yl)methanone]
> 5000 | O=C(c1nnc(-c2ncccc2F)o1)N1CCc2[nH]cnc2[C@@H]1c1cc2cccc(C(F)(F)F)n2n1 [Example 1035, (R)-(5-(3-fluoropyridin-2-yl)-1,3,4-oxadiazol-2-yl)(4-(7-(trifluoromethyl)pyrazolo[1,5-a]pyridin-2-yl)-6,7-dihydro-1H-imidazo[4,5-c]pyridin-5(4H)-yl)methanone]
> 5000 | O=C(c1nnc(-c2ccn(C(F)F)n2)o1)N1CCc2[nH]cnc2[C@@H]1c1cc2cccc(C(F)(F)F)n2n1 [Example 1037, (R)-(5-(1-(difluoromethyl)-1H-pyrazol-3-yl)-1,3,4-oxadiazol-2-yl)(4-(7-(trifluoromethyl)pyrazolo[1,5-a]pyridin-2-yl)-6,7-dihydro-1H-imidazo[4,5-c]pyridin-5(4H)-yl)methanone]
